Reference: US20250345350A1, “TREATING PAIN ASSOCIATED WITH CENTRAL SENSITIZATION” (Medicon Pharmaceuticals, Inc., priority 2022, published 2025)
Where two headings read alike, the source gives them in different places.

What was measured:
[1] = Pharmacokinetics and biodistribution after topical PS 8% ointment to hind paws (Example 25); type: in vivo, mouse; conditions: normal mice, topical PS 8% ointment to hind paws; for AUC(0-t) / Cmax / half-life: mouse, in vivo, topical or ocular, 50 μl per paw of PS 8% ointment; for AUC(0-t): read-out: AUC0-24 h; for Cmax: read-out: Cmax, mean ± SEM
Procedure: At 0.5, 1, 3, 5, 12, 18, and 24 h, mice (n=4-5 mice/time point) were euthanized with CO2 inhalation. Blood was drawn immediately after death. Tissues, including paw skin, paw muscle, leg muscle, the sciatic nerve and lumbar DRG bilaterally were dissected quickly, immediately frozen in liquid nitrogen and stored at −80° C. until analyzed.

[2] = test system: NTG-induced chronic migraine in mice; assay: PWT (von Frey), NTG-induced chronic migraine model, oral (Example 16)
Procedure: In particular, mice receive sublingual NTG 0.4 mg in the form of a finely crushed 0.4 mg NTG tablet (Greenstone Brand) every two days, receiving a total of five doses. For control mice, an NTG placebo (Practi-Nitroglycerin Sublingual 0.4 mg Simulated Medication tablet) was administered in the same way.
Group 1: placebo NTG (i.e, no NTG treatment, n=8) • 2. Group 2: NTG (n=8) • 3. Group 3: NTG+vehicle (n=8) • 4. […] Group 5: NTG+sulindac (n=8)
Mechanical allodynia was determined using von Frey filaments in line with that performed in the earlier Examples. The PWT test was performed prior to NTG (or placebo NTG) administration to determine baseline values, as indicated. […] The mechanical threshold, expressed as g, indicates the force of the von Frey filament to which the animal reacted.

[3] = test system: PHN induced by HSV-1 KOS strain virus in BALB/c mice; assay: PWT (von Frey), HSV-1 mouse model of PHN, topical (Example 20); type: in vivo
Procedure: PHN was induced in mice by infecting them with the HSV-1 KOS strain virus and following established protocols (Ou et al, Front Immunol, 14, 1026269, 2023; Takasaki et al, Anesthesiology, 96(5), 1168-74, 2002).
; Reckitt Benckiser). Three days later, HSV-1 (10^6 PFUs in 20 μl PBS) was inoculated on the shin of the right hind paw (5×5 mm) after scarification with sandpaper. The virus was applied directly to the scarified area. The contralateral hind paw was without inoculation. Mock infection was performed using the same virus inactivated by heating at 60° C. for 1 h.
. Group 1: sham inoculated (n=5-7) • 2.
In a second experiment, the effect of the parent compound, sulindac, was tested in the same mouse model. Five days post-inoculation, sulindac (as a 5% gel), or vehicle control were administered topically onto both hind paws of mice three times a day for three days.
. Group 1: vehicle control (n=5-7) • 2. Group 2: sulindac 5% (n=5-7)

[4] = test system: STZ-induced central sensitization in Sprague-Dawley rats; assay: PWT (von Frey), streptozotocin rat model of central sensitization (Example 4); type: in vivo; conditions: week 7; PS 8% hydrogel to both hind paws 3 times a day for 3 weeks from week 4 after STZ
Procedure: Sprague-Dawley rats were fasted for 4-6 hours before being injected intraperitoneally with 45 mg/kg STZ. This was performed for all experimental groups, except the naive group. In order to prevent hypoglycaemic death, rats received 10% sucrose water as the sole water source for the first 48 hours after injection. In order to ensure only those rats considered diabetic (i.e., having non-fasting plasma glucose levels of >250 mg/dL) were included in the study, blood glucose was measured at 72 hours after the STZ injection.
Four weeks after STZ injection, the rats were randomised into treatment groups. This delay between STZ injection and treatment allows the establishment of chronic pain (allodynia) associated with central sensitization. […] 5% lidocaine cream (positive control) was applied only once to both hind paws of the rats 30 minutes before measurement of PWT.
The rats were split into 8 study groups, with those in the experimental groups (1-4) having an average body weight of about 225 g, and those in the control groups (5-8) having an average body weight of about 335 g, as follows: • 1. Group 1: naive rats (n=5) • 2. Group 2: STZ only (n=6) • 3. Group 3: STZ plus vehicle (n=6) • 4. […] Group 5: STZ plus oral vehicle (n=8) • 6. Group 6: STZ plus 0.7% sulindac hydrogel (n=7) • 7. Group 7: STZ plus 5% lidocaine cream (n=8) • 8.

[5] = Pharmacokinetics and biodistribution after 3% PS gel on outer surface of eyelid (Example 26); type: in vivo, rabbit; conditions: male, New Zealand White, rabbit, rabbits, 3% PS gel on outer surface of upper eyelids; for Cmax / half-life / AUC(0-t): topical or ocular; for AUC(0-t): read-out: AUC0-24 h; for concentration at 0.5 h / concentration at 1 h / concentration at 2 h / concentration at 4 h / concentration at 8 h / concentration at 24 h: topical, read-out: Amount in tissue, Mean ± SEM
Procedure: The pharmacokinetics and biodistribution of 3% PS gel applied to the outer surface of both upper eyelids was studies in male New Zealand White rabbits.
Eyelid and tissues of the globe were dissected and frozen quickly in liquid nitrogen until the levels of PS and its metabolites were determined by HPLC as described Xie et al. (Br J Pharmacol (2012);165:2152-66).

[6] = PS and metabolites in proximal and distal half of the sciatic nerve (Example 25); type: in vivo, mouse; conditions: mice with paclitaxel-induced PN, PS 8% ointment 3x/d for 2 wks, 30 min after last dose; for concentration at 30 min: mouse, in vivo, 8 % PS ointment, 3×/d
Procedure: In a separate experiment we studied 8 mice with paclitaxel-induced PN treated with PS 8% ointment 3×/d for 2 wks. Mice were euthanized as above 30 minutes after the last dose of PS. From these mice we harvested both sciatic nerves dividing each into proximal and distal halves, and combined the corresponding halves of every two animals for assay of drug levels.

[7] = test system: paclitaxel-induced central sensitization in C57/BL/6J mice; conditions: day 14
Procedure: Regarding the treatment with lidocaine: 5% lidocaine cream (a positive control) was applied once to both hind paws of the mice 30 minutes before measurement of PWT.
Briefly, for mechanical allodynia, pain threshold responses were measured using the well-established method of von Frey filaments in line with that performed in the earlier Examples. The PWT test was performed on day-8 (before the first dose of paclitaxel), the day of starting treatment (day 0, at which central sensitization was fully established) and day 14 (treatment continued until day 15). The mechanical threshold, expressed as g, indicates the force of the von Frey filament to which the animal reacted.

[8] = test system: NTG-induced migraine in C57BL/6J mice; assay: PWT (von Frey), NTG-induced migraine mouse model, topical (Example 13)
Procedure: Specifically, instead of the intraperitoneal injection of NTG, a finely crushed 0.4 mg NTG tablet (Greenstone Brand) was administered sublingually. As a control, a Practi-Nitroglycerin Sublingual 0.4 mg Simulated Medication tablet was used.
For determining mechanical allodynia, pain threshold responses were measured using the well-established method of von Frey filaments in line with that performed in the earlier Examples.
The PWT test, assessing mechanical allodynia, was performed 30 minutes after treatment. The mechanical threshold, expressed as g, indicates the force of the von Frey filament to which the animal reacted.

CCOP(=O)(OCC)OCCCCOC(=O)CC1=C(C)/C(=C/c2ccc([S+](C)[O-])cc2)c2ccc(F)cc21 (centres unmarked) [PS, phosphosulindac]
AUC(0-t) ([1]; DRG (dorsal root ganglia)): 4.5 µM·h | Cmax ([1]; DRG (dorsal root ganglia)): 0.3 ± 0.1 µM | half-life ([1]; SN (sciatic nerve)): 57.4 h | AUC(0-t) ([1]; SN (sciatic nerve)): 12 µM·h | Cmax ([1]; SN (sciatic nerve)): 0.9 ± 0.1 µM | half-life ([1]; leg muscle): 20.6 h | AUC(0-t) ([1]; leg muscle): 172 µM·h | Cmax ([1]; leg muscle): 35 ± 3.6 µM | half-life ([1]; paw muscle): 11.4 h | AUC(0-t) ([1]; paw muscle): 411 µM·h | Cmax ([1]; paw muscle): 102 ± 4.6 µM | half-life ([1]; paw skin): 16.1 h | AUC(0-t) ([1]; paw skin): 1610 µM·h | Cmax ([1]; paw skin): 195 ± 5.3 µM | detection in the systemic circulation [1]: no PS was detected | PWT, g Mean ± SEM ([2]; Baseline, prior to NTG administration): 2.28 ± 0.34 g | PWT, g Mean ± SEM ([2]; Day 11, orally once a day for 11 days concurrent with NTG, PS 50 mg/kg, sulindac 33 mg/kg): 1.18 ± 0.10 g | PWT, g Mean ± SEM ([3]; Post-inoculation, day 5 (before treatment)): 0.53 ± 0.06 g | PWT, g Mean ± SEM ([3]; Post-treatment, PS 5% gel on both hind paws three times a day for three days): 0.93 ± 0.06 g | PWT, g Mean ± SEM ([3]; Pre-inoculation): 1.27 ± 0.19 g | PWT, gm Mean ± SEM [4]: 22.5 ± 2.20 gm | Cmax ([5]; conjunctiva): 5.8 µM | half-life ([5]; conjunctiva): 5.7 h | AUC(0-t) ([5]; conjunctiva): 58.6 ± 0.9 µM·h | Cmax ([5]; cornea): 1.8 µM | half-life ([5]; cornea): 23 h | AUC(0-t) ([5]; cornea): 6.4 ± 0.4 µM·h | Cmax ([5]; eyelid): 14.2 µM | half-life ([5]; eyelid): 14.4 h | AUC(0-t) ([5]; eyelid): 45.2 ± 0.5 µM·h | concentration at 0.5 h ([5]; AH (aqueous humor)): 0 µM | concentration at 1 h ([5]; AH (aqueous humor)): 0 µM | concentration at 2 h ([5]; AH (aqueous humor)): 0 µM | concentration at 4 h ([5]; AH (aqueous humor)): 0 µM | concentration at 8 h ([5]; AH (aqueous humor)): 0 µM | concentration at 24 h ([5]; AH (aqueous humor)): 0 µM | concentration at 0.5 h ([5]; conjunctiva): 1.3 ± 0.1 µM | concentration at 1 h ([5]; conjunctiva): 1.8 ± 0.3 µM | concentration at 2 h ([5]; conjunctiva): 0.4 ± 0.1 µM | concentration at 4 h ([5]; conjunctiva): 6.1 ± 3.3 µM | concentration at 8 h ([5]; conjunctiva): 3.4 ± 1.4 µM | concentration at 24 h ([5]; conjunctiva): 0.5 ± 0.4 µM | concentration at 0.5 h ([5]; cornea): 1.8 ± 0.9 µM | concentration at 1 h ([5]; cornea): 1.3 ± 0.2 µM | concentration at 2 h ([5]; cornea): 1.4 ± 0.1 µM | concentration at 4 h ([5]; cornea): 0.5 ± 0.1 µM | concentration at 8 h ([5]; cornea): 1.1 ± 0.6 µM | concentration at 24 h ([5]; cornea): 0 µM | concentration at 0.5 h ([5]; eyelid): 8.3 ± 2.2 µM | concentration at 1 h ([5]; eyelid): 14.2 ± 5.3 µM | concentration at 2 h ([5]; eyelid): 2 ± 0.5 µM | concentration at 4 h ([5]; eyelid): 3.5 ± 1.9 µM | concentration at 8 h ([5]; eyelid): 0.2 ± 0.2 µM | concentration at 24 h ([5]; eyelid): 1.8 ± 1.3 µM | concentration at 0.5 h ([5]; vitreous): 0 µM | concentration at 1 h ([5]; vitreous): 0 µM | concentration at 2 h ([5]; vitreous): 0 µM | concentration at 4 h ([5]; vitreous): 0 µM | concentration at 8 h ([5]; vitreous): 0 µM | concentration at 24 h ([5]; vitreous): 0 µM | Distal half of sciatic nerve, mean ± SEM [6]: 17.0 ± 5.1 µM | Proximal half of sciatic nerve, μM, mean ± SEM [6]: 0.9 ± 0.3 µM | concentration at 30 min ([6]; read-out: Distal half of sciatic nerve, mean ± SEM): 17 ± 5.1 µM | concentration at 30 min ([6]; read-out: Proximal half of sciatic nerve, μM, mean ± SEM): 0.9 ± 0.3 µM | PWT, g Mean ± SEM ([7]; PS 1.2% (equimolar to sulindac 0.7%) 3 times a day): 0.98 ± 0.06 g | PWT, g Mean ± SEM ([7]; PS hydrogel 5% or 0.7% sulindac 3 times a day, 5% lidocaine cream once 30 min before, pregabalin 10 mg/kg orally once 1 h before): 1.24 ± 0.07 g | PWT Post-treatment Mean ± SEM ([8]; 30 min after treatment, PS 8% gel or sulindac 5.3% (in DMSO) on both hind paws 30 min after NTG): 1.00 ± 0.12 g | PWT Baseline Mean ± SEM ([8]; baseline of the group, before NTG and treatment): 1.72 ± 0.10 g
